Results on three molecules are retold here after patent publication US8133506B2, “Drug delivery systems comprising weakly basic drugs and organic acids” (Aptalis Pharmatech, Inc., priority 2008, dated 2012).

Converted amounts (≈) assume the structure as drawn. Structures can show the parent of a compound that is named as a salt. Where two headings read alike, the source gives them in different places.

For data set [1] the following is noted: cited from earlier work.
The nature of data set [2]: physchem.
The nature of data set [3]: physchem. This is another data set of the same source.
The conditions of data set [4]: cited from earlier work. This is another data set of the same source.
A short description of data set [5]: pH-dependent solubility in aqueous buffer.
The nature of data set [6]: Solubility in organic acid buffers (fumaric, aspartic, glutamic acid).
Where [7] appears, read: pH 6.8, aqueous buffer, solubility.

`Cc1nccn1CC1CCc2c(c3ccccc3n2C)C1=O` (stereo not drawn) [Ondansetron HCl, ondansetron hydrochloride]: in data set [1] (average), the elimination half-life entry was “approximately 3.8±1 hrs”. The “absorption from the gastrointestinal tract” value in data set [1] (in vivo) is listed as “well absorbed”. Also, the solubility (in general, the dissolved amount per volume that the medium holds) worked out at 26900 µg/mL in data set [2] (pH 2.01, aqueous buffer); 27000 µg/mL in data set [2] (pH 2.14, aqueous buffer); 26100 µg/mL in data set [2] (pH 2.4, aqueous buffer); 26200 µg/mL in data set [2] (pH 2.75, aqueous buffer); 26000 µg/mL in data set [2] (pH 3.49, aqueous buffer); 26100 µg/mL in data set [2] (pH 4.05, aqueous buffer). Moreover, the solubility in data set [3] (pH 2.2, aqueous buffer, Solubility of Ondansetron HCl in Aqueous Buffer) came to 23300 µg/mL; in data set [3] (pH 3.2, aqueous buffer, Solubility of Ondansetron HCl in Aqueous Buffer) it was 25700 µg/mL; in data set [3] (pH 4.2, aqueous buffer, Solubility of Ondansetron HCl in Aqueous Buffer), 10900 µg/mL; in data set [3] (pH 5, aqueous buffer, Solubility of Ondansetron HCl in Aqueous Buffer) it was 3600 µg/mL; in data set [3] (pH 5.6, aqueous buffer, Solubility of Ondansetron HCl in Aqueous Buffer), 1700 µg/mL; in data set [3] (pH 6.2, aqueous buffer, Solubility of Ondansetron HCl in Aqueous Buffer), 400 µg/mL. The solubility is 36 µg/mL in data set [3] (pH 6.8, aqueous buffer, Solubility of Ondansetron HCl in Aqueous Buffer); less than 50 µg/mL in data set [3] (setting [7]); 25 µg/mL in data set [3] (pH 7, aqueous buffer, Solubility of Ondansetron HCl in Aqueous Buffer); “freely soluble” in data set [4] (low pH gastric fluids); “practically insoluble” in data set [4] (pH >6).
As for `O=C1CN=C(c2ccccc2Cl)c2cc([N+](=O)[O-])ccc2N1` [Clonazepam], the solubility amounted to 11.4 µg/mL (≈ 36.1 µM) in data set [5] (pH 2.2, aqueous buffer); 10.2 µg/mL (≈ 32.3 µM) in data set [5] (pH 2.8, aqueous buffer); 9.6 µg/mL (≈ 30.4 µM) in data set [5] (pH 3.2, aqueous buffer); 9.2 µg/mL (≈ 29.1 µM) in data set [5] (pH 3.8, aqueous buffer); 9.1 µg/mL (≈ 28.8 µM) in data set [5] (pH 4.2, aqueous buffer); 8.6 µg/mL (≈ 27.2 µM) in data set [5] (pH 4.8, aqueous buffer). In addition, the solubility in data set [5] (pH 5.4, aqueous buffer) was 8.4 µg/mL (≈ 26.6 µM); in data set [5] (pH 6.2, aqueous buffer), 8 µg/mL (≈ 25.3 µM); in data set [5] (physiological pHs), “practically insoluble”; in data set [6] (buffer at pH 2.3, higher concentration of fumaric acid), “about 11.6 μg/mL”; in data set [6] (buffer at pH 6.8, lower concentration of fumaric acid), approximately 6.9 µg/mL (≈ 21.9 µM); in data set [6] (pH 2.3, aqueous buffer), 11.6 µg/mL (≈ 36.7 µM). For the same molecule, the solubility in data set [6] (pH 2.8, aqueous buffer) was found to be 10.3 µg/mL (≈ 32.6 µM); in data set [6] (pH 3.2, aqueous buffer), 9.6 µg/mL (≈ 30.4 µM); in data set [6] (pH 3.7, aqueous buffer), 9.8 µg/mL (≈ 31 µM); in data set [6] (pH 5.5, aqueous buffer), 290 µg/mL (≈ 919 µM).
As for `COc1cc(C(C)=O)ccc1OCCCN1CCC(c2noc3cc(F)ccc23)CC1` [Iloperidone], the solubility in data set [3] (pH 1.2, simulated gastric fluid, Solubility of Iloperidone in Aqueous Buffer) was 3900 µg/mL (≈ 9140 µM); in data set [3] (pH 3.01, aqueous buffer, Solubility of Iloperidone in Aqueous Buffer), 1440 µg/mL (≈ 3370 µM); in data set [3] (pH 3.06, aqueous buffer, Solubility of Iloperidone in Aqueous Buffer), 917 µg/mL (≈ 2150 µM); in data set [3] (pH 4.08, aqueous buffer, Solubility of Iloperidone in Aqueous Buffer) it was 681 µg/mL (≈ 1600 µM); in data set [3] (pH 4.46, aqueous buffer, Solubility of Iloperidone in Aqueous Buffer), 586 µg/mL (≈ 1370 µM); in data set [3] (pH 5.09, aqueous buffer, Solubility of Iloperidone in Aqueous Buffer), 341 µg/mL (≈ 800 µM). Besides, the solubility is 117 µg/mL (≈ 274 µM) in data set [3] (pH 6.11, aqueous buffer, Solubility of Iloperidone in Aqueous Buffer); approximately 30 µg/mL (≈ 70.3 µM) in data set [3] (setting [7]); 11 µg/mL (≈ 25.8 µM) in data set [3] (pH 7.02, aqueous buffer, Solubility of Iloperidone in Aqueous Buffer); approximately 3000 µg/mL (≈ 7030 µM) in data set [3] (simulated gastric fluid, solubility).
